# Source: article PMC12598616, “Design and optimization of caspase-1-responsive fluorescent probes for pyroptosis imaging and anti-pyroptosis drug screening” (Chemical Science, 2025)
# System: Cas-1 in chondrocyte spheroids
# Assay: Imaging in chondrocyte 3D cell spheroids
# Format: cell-based
# Settings: H2O2 2 mM 30, 60, 90 min; FPy1 5 μM; compared with 2D cultures
# Description: The decline in chondrocyte function plays a crucial role in the pathogenesis of OA. Inflammasome-mediated chondrocyte pyroptosis has been closely associated with matrix degradation and cartilage degeneration in OA.[38] To model OA in vitro, primary chondrocytes were stimulated with H2O2 (2 mM) for different durations, followed by staining with FPy1 (5 μM) and fluorescence imaging to monitor the progression of pyroptosis under oxidative stress. […] To better mimic the in vivo pathological features of OA, primary chondrocytes were also cultured as three-dimensional spheroids and stimulated with H2O2. […] Furthermore, we evaluated the capability of FPy1 to monitor pyroptosis progression at different stages of OA in a mouse model. […] The pathological manifestations in the corresponding tissues became more pronounced with longer modeling periods, consistent with the fluorescence imaging results obtained using FPy1. […]
# Chondrocytes were isolated from articular cartilage and resuspended in 1mL DMEM/F12 medium containing 10 μM ITS-A. A total of […] were counted and transferred into centrifuge tubes. […]
# The chondrocytes or 3D cell spheroids were seeded in dishes and cultured overnight. […] Fluorescence imaging was then performed with an excitation of 514 nm, and signals were […]
substance,measurement,value
"–FLTDG– [FPy1, RhoB donor, hNR quencher]",fluorescence enhancement in chondrocyte spheroids,more pronounced fluorescence enhancement in chondrocyte spheroids than in two-dimensional cultures
